In patent publication US12098144B2, “Piperazine indazole glucocorticoid receptor antagonists” (Corcept Therapeutics Incorporated, priority 2021, dated 2024):
pIC50: −log10 of the molar value.

What follows are compounds tested against T1, glucocorticoid receptor (Homo sapiens, UniProt P04150) (assay: Hep G2 TAT IC50: inhibition of dexamethasone-induced TAT in HepG2 cells (384 well)).
T1 construct: endogenous in cells; ATCC cat
T1 sequence (P04150 1-777): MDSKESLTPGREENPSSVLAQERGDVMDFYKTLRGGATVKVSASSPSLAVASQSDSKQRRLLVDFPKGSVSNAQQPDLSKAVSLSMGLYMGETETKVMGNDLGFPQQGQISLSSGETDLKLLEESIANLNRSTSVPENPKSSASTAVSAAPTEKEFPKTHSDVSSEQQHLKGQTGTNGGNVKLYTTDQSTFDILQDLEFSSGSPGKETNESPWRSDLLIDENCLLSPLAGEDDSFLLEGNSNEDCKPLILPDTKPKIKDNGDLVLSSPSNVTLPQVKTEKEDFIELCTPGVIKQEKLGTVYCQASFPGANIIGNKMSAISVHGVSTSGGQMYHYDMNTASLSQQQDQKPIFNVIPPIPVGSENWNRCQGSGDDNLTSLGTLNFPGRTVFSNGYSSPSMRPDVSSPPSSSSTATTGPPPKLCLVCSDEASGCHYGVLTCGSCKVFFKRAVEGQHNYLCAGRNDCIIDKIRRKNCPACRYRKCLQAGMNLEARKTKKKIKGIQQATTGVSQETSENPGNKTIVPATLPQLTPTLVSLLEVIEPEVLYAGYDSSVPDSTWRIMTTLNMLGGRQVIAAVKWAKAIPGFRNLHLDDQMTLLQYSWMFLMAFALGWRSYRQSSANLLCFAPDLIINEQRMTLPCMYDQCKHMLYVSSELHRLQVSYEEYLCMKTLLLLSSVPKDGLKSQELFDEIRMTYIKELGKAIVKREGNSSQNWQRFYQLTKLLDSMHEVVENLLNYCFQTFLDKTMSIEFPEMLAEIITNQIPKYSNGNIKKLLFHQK
Type: cell-based
Method: Glucocorticoid mediated activation of TAT occurs by transactivation of glucocorticoid response elements in the TAT promoter by glucocorticoid receptor/agonist complex.
HepG2 cells were cultured using MEME media supplemented with 10% (v/v) foetal bovine serum, 2 mM L-glutamine, 1% (v/v) NEAA, and 1% (v/v) penstrep, at 37° C., 5%/95% (v/v) CO2/air.
Compounds were diluted from a 10 mM stock via an Echo Acoustic liquid handler into 10 μL assay media to generate a 10-point half-log dilution curve.
HepG2 cells were then lysed with 8 μL of cell lysis buffer containing a protease inhibitor cocktail for 15 minutes at 25° C. […] After a 2-hour incubation at 37° C. the reaction was terminated by the addition of 8 μL of 5 M aqueous potassium hydroxide solution, and the plates incubated for a further 30 minutes at 37° C.
[compound] and fitting the data to a 4-parameter logistic equation.

Structure (SMILES) | pIC50
Cc1cc2c(cnn2-c2ccc(F)cc2)cc1C1CN(S(=O)(=O)c2cccnn2)CCN1CC(C)C (single isomer, unassigned) [Example 190, 1-(4-fluorophenyl)-5-(1-isobutyl-4-pyridazin-3-ylsulfonyl-piperazin-2-yl)-6-methyl-indazole] | 5.97
Cc1cc2c(cnn2-c2ccc(F)c(CO)c2)cc1C1CN(S(=O)(=O)c2cnn(C)n2)CCN1CCC(F)(F)F (stereo not shown) [Example 202, (2-fluoro-5-(6-methyl-5-(4-(2-methyltriazol-4-yl)sulfonyl-1-(3,3,3-trifluoropropyl)piperazin-2-yl)indazol-1-yl)phenyl)methanol] | 5.99
O=S(=O)(N1CCOCC1)N1CCN(CCC(F)(F)F)C(c2cc3cnn(-c4ccc(F)cc4)c3cc2Cl)C1 (stereo not shown) [Example 210, 4-(3-(6-chloro-1-(4-fluorophenyl)indazol-5-yl)-4-(3,3,3-trifluoropropyl)piperazin-1-yl)sulfonylmorpholine] | 5.59
Cc1ncc(S(=O)(=O)N2CCCN(CCC(F)(F)F)C(c3cc4cnn(-c5ccc(F)cc5)c4cc3C)C2)s1 (stereo not shown) [Example 191, 5-((3-(1-(4-fluorophenyl)-6-methyl-indazol-5-yl)-4-(3,3,3-trifluoropropyl)-1,4-diazepan-1-yl)sulfonyl)-2-methyl-thiazole] | 5.40
Cc1cc2c(cnn2-c2ccc(F)cc2)cc1C1CN(S(=O)(=O)N2CCOCC2)CCN1CCc1ccccc1 (single isomer, unassigned) [Example 215, 4-(3-(1-(4-fluorophenyl)-6-methyl-indazol-5-yl)-4-(2-phenylethyl)piperazin-1-yl)sulfonylmorpholine] | 5.40
Cc1cc2c(cnn2-c2ccc(F)cc2)cc1C1CN(S(=O)(=O)N(C)C)CCN1CC1CC(F)(F)C1 (single isomer, unassigned) [Example 183, 4-((3,3-difluorocyclobutyl)methyl)-3-(1-(4-fluorophenyl)-6-methyl-indazol-5-yl)-N,N-dimethyl-piperazine-1-sulfonamide] | 5.57
Cc1cc2c(cnn2-c2ccccc2)cc1C1CN(S(=O)(=O)c2cnn(C)n2)CCN1CCC(F)(F)F (stereo not shown) [Example 199, 6-methyl-5-(4-(2-methyltriazol-4-yl)sulfonyl-1-(3,3,3-trifluoropropyl)piperazin-2-yl)-1-phenyl-indazole] | 5.88
COc1cc2c(cnn2-c2ccc(F)cc2)cc1C1CN(S(=O)(=O)N(C)C)CCN1CCC(F)(F)F (stereo not shown) [Example 212, 3-(1-(4-fluorophenyl)-6-methoxy-indazol-5-yl)-N,N-dimethyl-4-(3,3,3-trifluoropropyl)piperazine-1-sulfonamide] | 5.84
Cc1cc2c(cnn2-c2ccc(F)cc2)cc1C1CN(S(=O)(=O)N2CCOCC2)CCN1CC1CCC1 (single isomer, unassigned) [Example 178, 4-(4-(cyclobutylmethyl)-3-[1-(4-fluorophenyl)-6-methyl-indazol-5-yl]piperazin-1-yl)sulfonylmorpholine] | 5.46
Cc1ncc(S(=O)(=O)N2CCN(CC3CCCC3)C(c3cc4cnn(-c5ccc(F)cc5)c4cc3C)C2)s1 (single isomer, unassigned) [Example 187, 5-(4-(cyclopentylmethyl)-3-(1-(4-fluorophenyl)-6-methyl-indazol-5-yl)piperazin-1-yl)sulfonyl-2-methyl-thiazole] | 5.78
Cc1cc(-n2ncc3cc(C4CN(S(=O)(=O)c5cnn(C)n5)CCN4CCC(F)(F)F)c(C)cc32)ncn1 (stereo not shown) [Example 203, 6-methyl-1-(6-methylpyrimidin-4-yl)-5-(4-(2-methyltriazol-4-yl)sulfonyl-1-(3,3,3-trifluoropropyl)piperazin-2-yl)indazole] | 5.03
CN(C)S(=O)(=O)N1CCN(CCC(F)(F)F)C(c2cc3cnn(-c4ccc(F)cc4)c3cc2Cl)C1 (stereo not shown) [Example 209, 3-(6-chloro-1-(4-fluorophenyl)indazol-5-yl)-N,N-dimethyl-4-(3,3,3-trifluoropropyl)piperazine-1-sulfonamide] | 5.51
Cc1cc2c(cnn2-c2ccc(F)cc2)cc1C1CN(S(=O)(=O)N2CCOCC2)CCN1Cc1ccccc1 (single isomer, unassigned) [Example 214, 4-(4-benzyl-3-(1-(4-fluorophenyl)-6-methyl-indazol-5-yl)piperazin-1-yl)sulfonylmorpholine] | 5.56
COc1cc2c(cnn2-c2ccc(F)cc2)cc1C1CN(S(=O)(=O)N2CCOCC2)CCN1CCC(F)(F)F (stereo not shown) [Example 192, 4-(3-(1-(4-fluorophenyl)-6-methoxy-indazol-5-yl)-4-(3,3,3-trifluoropropyl)piperazin-1-yl)sulfonylmorpholine] | 5.50
Cc1cc(-n2ncc3cc(C4CN(S(=O)(=O)N5CCOCC5)CCN4CCC(F)(F)F)c(Cl)cc32)cn(C)c1=O (stereo not shown) [Example 211, 5-(6-chloro-5-(4-morpholinosulfonyl-1-(3,3,3-trifluoropropyl)piperazin-2-yl)indazol-1-yl)-1,3-dimethyl-pyridin-2-one] | 6.23
Cc1cccc(-n2ncc3cc(C4CN(S(=O)(=O)c5cnn(C)n5)CCN4CCC(F)(F)F)c(C)cc32)c1 (stereo not shown) [Example 200, 6-methyl-5-(4-(2-methyltriazol-4-yl)sulfonyl-1-(3,3,3-trifluoropropyl)piperazin-2-yl)-1-(m-tolyl)indazole] | 5.40
Cc1cc2c(cnn2-c2ccc(=O)n(C)c2)cc1C1CN(S(=O)(=O)c2cccnc2)CCN1CCC(F)(F)F (stereo not shown) [Example 197, 1-methyl-5-(6-methyl-5-(4-(3-pyridylsulfonyl)-1-(3,3,3-trifluoropropyl)piperazin-2-yl)indazol-1-yl)pyridin-2-one] | 6.00
Cc1cc2c(cnn2-c2cc(C)c(=O)n(C)c2)cc1C1CN(S(=O)(=O)c2ccccn2)CCN1CCC(F)(F)F (stereo not shown) [Example 195, 1,3-dimethyl-5-(6-methyl-5-(4-(2-pyridylsulfonyl)-1-(3,3,3-trifluoropropyl)piperazin-2-yl)indazol-1-yl)pyridin-2-one] | 6.60
Cc1cc2c(cnn2-c2ccc(F)cc2)cc1C1CN(S(=O)(=O)N2CCOCC2)CCN1CC1CC(F)(F)C1 (single isomer, unassigned) [Example 179, 4-(4-((3,3-difluorocyclobutyl)methyl)-3-(1-(4-fluorophenyl)-6-methyl-indazol-5-yl)piperazin-1-yl)sulfonylmorpholine] | 5.70
COc1cc2c(cnn2-c2ccc(F)cc2)cc1C1CN(S(=O)(=O)c2csc(C)n2)CCN1CCC(F)(F)F (stereo not shown) [Example 188, 4-(3-(1-(4-fluorophenyl)-6-methoxy-indazol-5-yl)-4-(3,3,3-trifluoropropyl)piperazin-1-yl)sulfonyl-2-methyl-thiazole] | 5.88
Cc1cc2c(cnn2-c2ccc(F)cc2)cc1C1CN(S(=O)(=O)N(C)C)CCN1CCC(F)(F)F (single isomer, unassigned) [Example 181, 3-(1-(4-fluorophenyl)-6-methyl-indazol-5-yl)-N,N-dimethyl-4-(3,3,3-trifluoropropyl)piperazine-1-sulfonamide] | 5.78
CCn1cc(S(=O)(=O)N2CCN(CCC(F)(F)F)C(c3cc4cnn(-c5cc(C)c(=O)n(C)c5)c4cc3C)C2)cn1 (stereo not shown) [Example 174, 5-(5-(4-(1-ethylpyrazol-4-yl)sulfonyl-1-(3,3,3-trifluoropropyl)piperazin-2-yl)-6-methyl-indazol-1-yl)-1,3-dimethyl-pyridin-2-one] | 6.72
Cc1nc(S(=O)(=O)N2CCN(CC3CCC3)C(c3cc4cnn(-c5ccc(F)cc5)c4cc3C)C2)cs1 (single isomer, unassigned) [Example 184, 4-(4-(cyclobutylmethyl)-3-(1-(4-fluorophenyl)-6-methyl-indazol-5-yl)piperazin-1-yl)sulfonyl-2-methyl-thiazole] | 5.94
Cc1cc2c(cnn2-c2cc(C)c(=O)n(C)c2)cc1C1CN(S(=O)(=O)N(C)C)CCN1CCC(F)(F)F (stereo not shown) [Example 196, 3-(1-(1,5-dimethyl-6-oxo-3-pyridyl)-6-methyl-indazol-5-yl)-N,N-dimethyl-4-(3,3,3-trifluoropropyl)piperazine-1-sulfonamide] | 6.55
COc1cc2c(cnn2-c2ccc(F)cc2)cc1C1CN(S(=O)(=O)N2CCOCC2)CCN1CC1CC(F)(F)C1 (stereo not shown) [Example 193, 4-(4-((3,3-difluorocyclobutyl)methyl)-3-(1-(4-fluorophenyl)-6-methoxy-indazol-5-yl)piperazin-1-yl)sulfonylmorpholine] | 5.56
